Source: PubChem BioAssay (NCI)
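Interpolation was linear, between the two tested concentrations surrounding the appropriate level; five concentrations were tested over 48 hours in 96-well plates. GI50 is the concentration that inhibits growth by half. The concentration for full growth arrest is given as TGI.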

Tests used:
Assay in all cases: NCI anticancer screen, dose series, 48 h
786-0 renal = tested on: 786-0 renal
A498 renal = tested on: A498 renal
A549 NSCLC = tested on: A549 NSCLC
ACHN renal = tested on: ACHN renal
COLO 205 colon = tested on: COLO 205 colon
DLD-1 colon = tested on: DLD-1 colon
DMS 114 small cell lung = tested on: DMS 114 small cell lung
DMS 273 small cell lung = tested on: DMS 273 small cell lung
EKVX NSCLC = tested on: EKVX NSCLC
HCC-2998 colon = tested on: HCC-2998 colon
HCT-116 colon = tested on: HCT-116 colon
HCT-15 colon = tested on: HCT-15 colon
HL-60(TB) leukemia = tested on: HL-60(TB) leukemia
HOP-18 NSCLC = tested on: HOP-18 NSCLC
HOP-92 NSCLC = tested on: HOP-92 NSCLC
HT29 colon = tested on: HT29 colon
IGROV1 ovarian = tested on: IGROV1 ovarian
K-562 leukemia = tested on: K-562 leukemia
KM12 colon = tested on: KM12 colon
KM20L2 colon = tested on: KM20L2 colon
LOX IMVI melanoma = tested on: LOX IMVI melanoma
LXFL 529 NSCLC = tested on: LXFL 529 NSCLC
M14 melanoma = tested on: M14 melanoma
M19-MEL melanoma = tested on: M19-MEL melanoma
MALME-3M melanoma = tested on: MALME-3M melanoma
NCI-H23 lung = tested on: NCI-H23 lung
NCI-H460 lung = tested on: NCI-H460 lung
NCI-H522 lung = tested on: NCI-H522 lung
OVCAR-3 ovarian = tested on: OVCAR-3 ovarian
OVCAR-4 ovarian = tested on: OVCAR-4 ovarian
OVCAR-5 ovarian = tested on: OVCAR-5 ovarian
OVCAR-8 ovarian = tested on: OVCAR-8 ovarian
RPMI-8226 leukemia = tested on: RPMI-8226 leukemia
RXF 393 renal = tested on: RXF 393 renal
SF-268 CNS = tested on: SF-268 CNS
SF-295 CNS = tested on: SF-295 CNS
SF-539 CNS = tested on: SF-539 CNS
SK-MEL-2 melanoma = tested on: SK-MEL-2 melanoma
SK-MEL-28 melanoma = tested on: SK-MEL-28 melanoma
SK-MEL-5 melanoma = tested on: SK-MEL-5 melanoma
SK-OV-3 ovarian = tested on: SK-OV-3 ovarian
SN12C renal = tested on: SN12C renal
SNB-19 CNS = tested on: SNB-19 CNS
SNB-75 CNS = tested on: SNB-75 CNS
SNB-78 CNS = tested on: SNB-78 CNS
SR leukemia = tested on: SR leukemia
SW-620 colon = tested on: SW-620 colon
TK-10 renal = tested on: TK-10 renal
U251 CNS = tested on: U251 CNS
UACC-257 melanoma = tested on: UACC-257 melanoma
UACC-62 melanoma = tested on: UACC-62 melanoma
UO-31 renal = tested on: UO-31 renal

For `[C-]#[O+].[Cl][Sn]([Cl])[Cl].[Cl][Sn]([Cl])[Cl].[Pt].c1ccc([PH+](c2ccccc2)c2ccccc2)cc1.c1ccc([PH+](c2ccccc2)c2ccccc2)cc1`, the GI50 (786-0 renal) was 53.5 µM, the TGI (786-0 renal) was greater than 100 µM and the GI50 (A498 renal) was 18.8 µM. It also gave a TGI (A498 renal) of 50.1 µM, a GI50 (A549 NSCLC) of 44.1 µM and a TGI (A549 NSCLC) greater than 100 µM. For the same molecule, the GI50 (ACHN renal) was 26.4 µM, the TGI (ACHN renal) was greater than 100 µM and the GI50 (COLO 205 colon) was greater than 100 µM. For the same molecule, the TGI (COLO 205 colon) was greater than 100 µM, the GI50 (DLD-1 colon) was 45.5 µM and the TGI (DLD-1 colon) was greater than 100 µM. The GI50 (DMS 114 small cell lung) was 21.8 µM, the TGI (DMS 114 small cell lung) was 51.2 µM and the GI50 (DMS 273 small cell lung) was 46.1 µM. It also gave a TGI (DMS 273 small cell lung) greater than 100 µM, a GI50 (EKVX NSCLC) of 28 µM and a TGI (EKVX NSCLC) greater than 100 µM. The GI50 (HCC-2998 colon) was 60.7 µM, the TGI (HCC-2998 colon) was greater than 100 µM and the GI50 (HCT-116 colon) was 43.2 µM. The TGI (HCT-116 colon) was greater than 100 µM, the GI50 (HCT-15 colon) was 49.9 µM and the TGI (HCT-15 colon) was greater than 100 µM. The GI50 (HL-60(TB) leukemia) was 25.4 µM, the TGI (HL-60(TB) leukemia) was 69.1 µM and the GI50 (HOP-18 NSCLC) was 25.3 µM. It also gave a TGI (HOP-18 NSCLC) of 90 µM, a GI50 (HOP-92 NSCLC) of 17.1 µM and a TGI (HOP-92 NSCLC) of 46.8 µM. The GI50 (HT29 colon) was greater than 100 µM, the TGI (HT29 colon) was greater than 100 µM and the GI50 (IGROV1 ovarian) was 20.9 µM. For the same molecule, the TGI (IGROV1 ovarian) was greater than 100 µM, the GI50 (K-562 leukemia) was 34.8 µM and the TGI (K-562 leukemia) was greater than 100 µM. The GI50 (KM12 colon) was 42.3 µM, the TGI (KM12 colon) was greater than 100 µM and the GI50 (KM20L2 colon) was greater than 100 µM. For the same molecule, the TGI (KM20L2 colon) was greater than 100 µM, the GI50 (LOX IMVI melanoma) was 14.2 µM and the TGI (LOX IMVI melanoma) was 41 µM. It also gave a GI50 (LXFL 529 NSCLC) of 23.2 µM, a TGI (LXFL 529 NSCLC) of 82.1 µM and a GI50 (M14 melanoma) of 30.7 µM. The TGI (M14 melanoma) was greater than 100 µM, the GI50 (M19-MEL melanoma) was 41 µM and the TGI (M19-MEL melanoma) was greater than 100 µM. It also gave a GI50 (MALME-3M melanoma) of 60 µM, a TGI (MALME-3M melanoma) greater than 100 µM and a GI50 (NCI-H23 lung) of 13.7 µM. For the same molecule, the TGI (NCI-H23 lung) was 37 µM, the GI50 (NCI-H460 lung) was 33.8 µM and the TGI (NCI-H460 lung) was greater than 100 µM. The GI50 (NCI-H522 lung) was 23.3 µM, the TGI (NCI-H522 lung) was 56.7 µM and the GI50 (OVCAR-3 ovarian) was 62.1 µM. It also gave a TGI (OVCAR-3 ovarian) greater than 100 µM, a GI50 (OVCAR-4 ovarian) of 56.1 µM and a TGI (OVCAR-4 ovarian) greater than 100 µM. The GI50 (OVCAR-5 ovarian) was 88 µM, the TGI (OVCAR-5 ovarian) was greater than 100 µM and the GI50 (OVCAR-8 ovarian) was 22.5 µM. The TGI (OVCAR-8 ovarian) was 65.7 µM, the GI50 (RPMI-8226 leukemia) was 27.7 µM and the TGI (RPMI-8226 leukemia) was 80.3 µM. It also gave a GI50 (RXF 393 renal) of 1.57 µM, a TGI (RXF 393 renal) of 9.82 µM and a GI50 (SF-268 CNS) of 23 µM. It also gave a TGI (SF-268 CNS) of 51.1 µM, a GI50 (SF-295 CNS) of 71.5 µM and a TGI (SF-295 CNS) greater than 100 µM. It also gave a GI50 (SF-539 CNS) of 92.3 µM, a TGI (SF-539 CNS) greater than 100 µM and a GI50 (SK-MEL-2 melanoma) of 34 µM. The TGI (SK-MEL-2 melanoma) was greater than 100 µM, the GI50 (SK-MEL-28 melanoma) was 69.5 µM and the TGI (SK-MEL-28 melanoma) was greater than 100 µM. The GI50 (SK-MEL-5 melanoma) was 31.5 µM, the TGI (SK-MEL-5 melanoma) was greater than 100 µM and the GI50 (SK-OV-3 ovarian) was 48.2 µM. The TGI (SK-OV-3 ovarian) was greater than 100 µM, the GI50 (SN12C renal) was 56.6 µM and the TGI (SN12C renal) was greater than 100 µM. It also gave a GI50 (SNB-19 CNS) of 34.5 µM, a TGI (SNB-19 CNS) greater than 100 µM and a GI50 (SNB-75 CNS) greater than 100 µM. The TGI (SNB-75 CNS) was greater than 100 µM, the GI50 (SNB-78 CNS) was greater than 100 µM and the TGI (SNB-78 CNS) was greater than 100 µM. The GI50 (SR leukemia) was 37.7 µM, the TGI (SR leukemia) was greater than 100 µM and the GI50 (SW-620 colon) was 35.1 µM. The TGI (SW-620 colon) was greater than 100 µM, the GI50 (TK-10 renal) was 25.5 µM and the TGI (TK-10 renal) was 52.3 µM. It also gave a GI50 (U251 CNS) of 15.3 µM, a TGI (U251 CNS) of 42.5 µM and a GI50 (UACC-257 melanoma) of 37.7 µM. The TGI (UACC-257 melanoma) was greater than 100 µM, the GI50 (UACC-62 melanoma) was 27.7 µM and the TGI (UACC-62 melanoma) was greater than 100 µM. For the same molecule, the GI50 (UO-31 renal) was greater than 100 µM and the TGI (UO-31 renal) was greater than 100 µM.
